Calls of active or inactive are those of the source. No rule for the calls is given here.
System: CCRIS mutagenicity, Ames/micronucleus/aberration tests
Test: CCRIS mutagenicity studies
[1] = Test System: AMES SALMONELLA TYPHIMURIUM, Strain/Indicator: TA98, Metabolic Activation: NONE, Method: STANDARD PLATE
[2] = Test System: AMES SALMONELLA TYPHIMURIUM, Strain/Indicator: TA98, Metabolic Activation: RAT, LIVER, S-9, AROCLOR 1254, Method: STANDARD PLATE
[3] = Test System: AMES SALMONELLA TYPHIMURIUM, Strain/Indicator: TA100, Metabolic Activation: NONE, Method: STANDARD PLATE
[4] = Test System: AMES SALMONELLA TYPHIMURIUM, Strain/Indicator: TA100, Metabolic Activation: RAT, LIVER, S-9, AROCLOR 1254, Method: STANDARD PLATE
[5] = Test System: AMES SALMONELLA TYPHIMURIUM, Strain/Indicator: TA1535, Metabolic Activation: NONE, Method: STANDARD PLATE
[6] = Test System: AMES SALMONELLA TYPHIMURIUM, Strain/Indicator: TA1535, Metabolic Activation: RAT, LIVER, S-9, AROCLOR 1254, Method: STANDARD PLATE
[7] = Test System: AMES SALMONELLA TYPHIMURIUM, Strain/Indicator: TA1537, Metabolic Activation: NONE, Method: STANDARD PLATE
[8] = Test System: AMES SALMONELLA TYPHIMURIUM, Strain/Indicator: TA1537, Metabolic Activation: RAT, LIVER, S-9, AROCLOR 1254, Method: STANDARD PLATE
[9] = Test System: AMES SALMONELLA TYPHIMURIUM, Strain/Indicator: TA1538, Metabolic Activation: NONE, Method: STANDARD PLATE
[10] = Test System: AMES SALMONELLA TYPHIMURIUM, Strain/Indicator: TA1538, Metabolic Activation: RAT, LIVER, S-9, AROCLOR 1254, Method: STANDARD PLATE
[11] = Test System: AMES SALMONELLA TYPHIMURIUM, Strain/Indicator: TA100, Metabolic Activation: NONE, Method: PREINCUBATION

CC(=O)Oc1ccccc1C(=O)Oc1ccccc1C(=O)O
mutagenic call (Test System: AMES SALMONELLA TYPHIMURIUM, Strain/Indicator: TA97, Metabolic Activation: NONE, Method: STANDARD PLATE): inactive; negative | mutagenic call (Test System: AMES SALMONELLA TYPHIMURIUM, Strain/Indicator: TA97, Metabolic Activation: RAT, LIVER, S-9, AROCLOR 1254, Method: STANDARD PLATE): inactive; negative | mutagenic call [1]: inactive; negative | mutagenic call [2]: inactive; negative | mutagenic call [3]: inactive; negative | mutagenic call [4]: inactive; negative | mutagenic call [5]: inactive; negative | mutagenic call [6]: inactive; negative | mutagenic call [7]: inactive; negative | mutagenic call [8]: inactive; negative | mutagenic call [9]: inactive; negative | mutagenic call [10]: inactive; negative

CCC/C=C/C=O
mutagenic call (Test System: AMES SALMONELLA TYPHIMURIUM, Strain/Indicator: TA97A, Metabolic Activation: NONE, Method: DESICCATOR): inactive; negative | mutagenic call (Test System: AMES SALMONELLA TYPHIMURIUM, Strain/Indicator: TA97A, Metabolic Activation: S-9, Method: DESICCATOR): inactive; negative | mutagenic call (Test System: AMES SALMONELLA TYPHIMURIUM, Strain/Indicator: TA98, Metabolic Activation: NONE, Method: DESICCATOR): inactive; negative | mutagenic call (Test System: AMES SALMONELLA TYPHIMURIUM, Strain/Indicator: TA100, Metabolic Activation: NONE, Method: DESICCATOR): inactive; negative | mutagenic call [11]: inactive; negative | mutagenic call (Test System: AMES SALMONELLA TYPHIMURIUM, Strain/Indicator: TA100, Metabolic Activation: NONE, Method: PREINCUBATION (THREEFOLD CELL DENSITY)): active; positive | mutagenic call (Test System: AMES SALMONELLA TYPHIMURIUM, Strain/Indicator: TA100, Metabolic Activation: RAT, LIVER, S-9, AROCLOR 1254, Method: PREINCUBATION): inactive; negative | mutagenic call (Test System: AMES SALMONELLA TYPHIMURIUM, Strain/Indicator: TA100, Metabolic Activation: RAT, LIVER, S-9, AROCLOR 1254, Method: PREINCUBATION (THREEFOLD CELL DENSITY)): active; positive | mutagenic call (Test System: AMES SALMONELLA TYPHIMURIUM, Strain/Indicator: TA100, Metabolic Activation: S-9, Method: DESICCATOR): inactive; negative | mutagenic call (Test System: AMES SALMONELLA TYPHIMURIUM, Strain/Indicator: TA102, Metabolic Activation: S-9, Method: DESICCATOR): inactive; negative | mutagenic call (Test System: AMES SALMONELLA TYPHIMURIUM, Strain/Indicator: TA104, Metabolic Activation: NONE, Method: DESICCATOR): inactive; negative | mutagenic call (Test System: AMES SALMONELLA TYPHIMURIUM, Strain/Indicator: TA104, Metabolic Activation: NONE, Method: PREINCUBATION): active; positive | mutagenic call (Test System: AMES SALMONELLA TYPHIMURIUM, Strain/Indicator: TA104, Metabolic Activation: S-9, Method: DESICCATOR): inactive; negative | mutagenic call (Test System: CHINESE HAMSTER V-79, Strain/Indicator: V-79/6-THIOGUANINE, Metabolic Activation: NONE, Method: STANDARD PLATE): active; positive | mutagenic call (Test System: CHINESE HAMSTER V-79, Strain/Indicator: V-79/OUABAIN, Metabolic Activation: NONE, Method: STANDARD PLATE): inactive; negative

CCOC(=O)C(Cl)C(C)=O (configuration not stated)
mutagenic call (Test System: AMES SALMONELLA TYPHIMURIUM, Strain/Indicator: TA98, Metabolic Activation: HAMSTER, LIVER, S-9, AROCLOR 1254, Method: STANDARD PLATE): inactive; negative | mutagenic call [1]: inactive; negative | mutagenic call [2]: inactive; negative | mutagenic call (Test System: AMES SALMONELLA TYPHIMURIUM, Strain/Indicator: TA100, Metabolic Activation: HAMSTER, LIVER, S-9, AROCLOR 1254, Method: STANDARD PLATE): inactive; negative | mutagenic call [3]: inactive; negative | mutagenic call [4]: inactive; negative | mutagenic call (Test System: AMES SALMONELLA TYPHIMURIUM, Strain/Indicator: TA1535, Metabolic Activation: HAMSTER, LIVER, S-9, AROCLOR 1254, Method: STANDARD PLATE): inactive; negative | mutagenic call [5]: inactive; negative | mutagenic call [6]: inactive; negative | mutagenic call (Test System: AMES SALMONELLA TYPHIMURIUM, Strain/Indicator: TA1537, Metabolic Activation: HAMSTER, LIVER, S-9, AROCLOR 1254, Method: STANDARD PLATE): inactive; negative | mutagenic call [7]: inactive; negative | mutagenic call [8]: inactive; negative | mutagenic call (Test System: AMES SALMONELLA TYPHIMURIUM, Strain/Indicator: TA1538, Metabolic Activation: HAMSTER, LIVER, S-9, AROCLOR 1254, Method: STANDARD PLATE): inactive; negative | mutagenic call [9]: inactive; negative | mutagenic call [10]: inactive; negative | mutagenic call (Test System: MOUSE LYMPHOMA, Strain/Indicator: L5178Y (TK+/TK-), Metabolic Activation: NONE, Method: SUSPENSION/PLATE): inactive; positive. reevaluation of results: negative | mutagenic call (Test System: MOUSE LYMPHOMA, Strain/Indicator: L5178Y (TK+/TK-), Metabolic Activation: RAT, LIVER, S-9, AROCLOR 1254, Method: SUSPENSION/PLATE): active; positive. reevaluation of results: inconclusive

Cc1cc2c(N3CCCC3)nc(N3CCCC3)nc2n1C
mutagenic call (Test System: UDS RAT HEPATOCYTES, Strain/Indicator: THY-INCORP, Metabolic Activation: NONE, Method: AUTORADIOGRAPHY): active; positive

Cc1nc2cc(C)c3c(nc(N)n3C)c2nc1C
mutagenic call [2]: active; positive

CSc1cc(SC)c(N)c(C)c1N
mutagenic call [2]: active; positive

CC(C)COC(=O)NO
mutagenic call (Test System: E. COLI, Strain/Indicator: WP2 UVRA, Metabolic Activation: NONE, Method: FLUCTUATION TEST): active; positive

CC(CO)(CO)CO
mutagenic call (Test System: AMES SALMONELLA TYPHIMURIUM, Strain/Indicator: TA98, Metabolic Activation: NONE, Method: PREINCUBATION): inactive; negative | mutagenic call (Test System: AMES SALMONELLA TYPHIMURIUM, Strain/Indicator: TA98, Metabolic Activation: RAT LIVER S-9, PHENOBARBITAL AND BETA-NAPHTHOFLAVONE, Method: PREINCUBATION): inactive; negative | mutagenic call [11]: inactive; negative | mutagenic call (Test System: AMES SALMONELLA TYPHIMURIUM, Strain/Indicator: TA100, Metabolic Activation: RAT LIVER S-9, PHENOBARBITAL AND BETA-NAPHTHOFLAVONE, Method: PREINCUBATION): inactive; negative | mutagenic call (Test System: AMES SALMONELLA TYPHIMURIUM, Strain/Indicator: TA1535, Metabolic Activation: NONE, Method: PREINCUBATION): inactive; negative | mutagenic call (Test System: AMES SALMONELLA TYPHIMURIUM, Strain/Indicator: TA1535, Metabolic Activation: RAT LIVER S-9, PHENOBARBITAL AND BETA-NAPHTHOFLAVONE, Method: PREINCUBATION): inactive; negative | mutagenic call (Test System: AMES SALMONELLA TYPHIMURIUM, Strain/Indicator: TA1537, Metabolic Activation: NONE, Method: PREINCUBATION): inactive; negative | mutagenic call (Test System: AMES SALMONELLA TYPHIMURIUM, Strain/Indicator: TA1537, Metabolic Activation: RAT LIVER S-9, PHENOBARBITAL AND BETA-NAPHTHOFLAVONE, Method: PREINCUBATION): inactive; negative | mutagenic call (Test System: E.COLI, Strain/Indicator: WP2UVRA/PKM101, Metabolic Activation: NONE, Method: PREINCUBATION): inactive; negative | mutagenic call (Test System: E.COLI, Strain/Indicator: WP2UVRA/PKM101, Metabolic Activation: RAT LIVER S-9, PHENOBARBITAL AND BETA-NAPHTHOFLAVONE, Method: PREINCUBATION): inactive; negative

Cc1ccc(N(O)C=O)cc1
mutagenic call [1]: inactive; negative | mutagenic call [2]: active; positive | mutagenic call [3]: inactive; negative | mutagenic call [4]: active; positive
